Data as given in paper PMC10781839 (European Journal of Drug Metabolism and Pharmacokinetics, 2023).
Entries after “also recorded” stand apart in the source; their conditions may differ. Read-outs that look alike come from different tables or passages of the source.

How the values were obtained:
CYP3A = conditions: for Midazolam/1-OH-midazolam AUC2–4 h ratio: pantoprazole group
CYP2D6 [1] = conditions: cited from earlier work
CYP2D6 [2] = conditions: single 400 mg HCQ, short term, yohimbine probe
[3] = cited from earlier work
CYP3A4 = conditions: cited from earlier work; for CYP3A4 inhibition in vitro: HCQ metabolites
CYP2D6 [4] = conditions: cited from earlier work; remark: listed apart in the source
[5] = cited from earlier work; remark: listed apart in the source
recombinant human CYP3A4 = recombinant human CYP3A4 (Homo sapiens, UniProt P08684); assay: P450-Glo CYP3A4 Assay, inhibition by pantoprazole; assay type: in vitro ADME; conditions: pantoprazole 100 µM, in vitro
Chain of recombinant human CYP3A4 (P08684 whole entry): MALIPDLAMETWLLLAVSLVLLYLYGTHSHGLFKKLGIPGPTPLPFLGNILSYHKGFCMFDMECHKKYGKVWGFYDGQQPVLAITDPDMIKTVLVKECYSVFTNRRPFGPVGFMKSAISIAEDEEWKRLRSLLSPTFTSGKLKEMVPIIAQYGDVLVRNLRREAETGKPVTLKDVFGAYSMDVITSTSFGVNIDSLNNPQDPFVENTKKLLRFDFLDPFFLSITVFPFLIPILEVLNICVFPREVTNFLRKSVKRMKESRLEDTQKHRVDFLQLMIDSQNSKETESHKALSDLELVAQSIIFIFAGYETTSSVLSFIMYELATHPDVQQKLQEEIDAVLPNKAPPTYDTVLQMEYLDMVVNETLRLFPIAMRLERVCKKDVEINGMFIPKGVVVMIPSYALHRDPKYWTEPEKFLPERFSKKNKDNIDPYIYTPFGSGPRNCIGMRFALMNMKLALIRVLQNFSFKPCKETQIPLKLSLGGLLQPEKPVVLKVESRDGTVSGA

[6] = cited from earlier work; for Peak serum concentration: pantoprazole 40 mg
[7] = all participants, after HCQ intake (± pantoprazole)
[8] = pantoprazole subgroup, HCQ plus pantoprazole
[9] = after 8-day course of 400 mg HCQ twice daily, seven healthy volunteers

OCc1ncc2n1-c1ccc(Cl)cc1C(c1ccccc1F)=NC2 [1-OH-midazolam, 1-hydroxy-midazolam]
Increase of 1-OH-midazolam AUC2–4 h vs baseline (CYP3A; [7]): 17%
Increase of 1-OH-midazolam AUC2–4 h vs baseline (CYP3A; [8]): 17.5%

CCN(CCO)CCCC(C)Nc1ccnc2cc(Cl)ccc12 (stereo not shown) [HCQ, hydroxychloroquine]
Inhibition of CYP3A metabolism in vivo (CYP3A; single 400 mg HCQ, short term, midazolam probe): did not inhibit
CYP2D6 inhibition in healthy volunteers (CYP2D6 [1]; interaction with metoprolol and dextromethorphan): weakly inhibits CYP2D6
Inhibition of CYP2D6 metabolism in vivo (CYP2D6 [2]): not a clinically relevant CYP2D6 inhibitor; also recorded: did not inhibit
Time until steady state is reached [3]: 4 months
CYP3A4 inhibition in vitro by parent drug (CYP3A4): did not support the hypothesis that the parent drug HCQ inhibits CYP3A4 activity
CYP2D6 inhibition in vitro (CYP2D6 [4]): competitively and reversibly inhibit CYP2D6 activity, albeit only mildly

CCNCCCC(C)Nc1ccnc2cc(Cl)ccc12 (stereo not shown) [desethylchloroquine]
CYP3A4 inhibition in vitro (CYP3A4): time-dependent inhibitors of CYP3A4
CYP2D6 inhibition in vitro (CYP2D6 [4]): competitively and reversibly inhibit CYP2D6 activity, albeit only mildly

CC(CCCNCCO)Nc1ccnc2cc(Cl)ccc12 (stereo not shown) [desethylhydroxychloroquine]
CYP3A4 inhibition in vitro (CYP3A4): time-dependent inhibitors of CYP3A4

COc1ccc2c(c1)[C@]13CCCC[C@@H]1[C@H](C2)N(C)CC3 [dextromethorphan]
Change of urinary metabolic ratio of dextromethorphan (CYP2D6 [1]; after 8-day course of 400 mg HCQ twice daily): did not show any significant change

CC(CCCN)Nc1ccnc2cc(Cl)ccc12 (stereo not shown) [didesethylchloroquine]
CYP3A4 inhibition in vitro (CYP3A4): time-dependent inhibitors of CYP3A4

COCCc1ccc(OCC(O)CNC(C)C)cc1 (stereo not shown) [metoprolol]
Increase of metoprolol AUC (CYP2D6 [1]; [9]): 65%
Increase of metoprolol Cmax (CYP2D6 [1]; [9]): 72%

Cc1ncc2n1-c1ccc(Cl)cc1C(c1ccccc1F)=NC2 [midazolam]
Increase of midazolam AUC2–4 h vs baseline (CYP3A; [7]): 25%
Change of midazolam AUC2–4 h vs baseline (CYP3A; control subgroup, HCQ alone): no change
Midazolam/1-OH-midazolam AUC2–4 h ratio (CYP3A; after hydroxychloroquine plus pantoprazole): 3.60 ± 1.56
Midazolam/1-OH-midazolam AUC2–4 h ratio (CYP3A; baseline): 3.03 ± 1.59
Increase of midazolam AUC2–4 h vs baseline (CYP3A; [8]): 46%
Delay of peak plasma concentration vs fasting state ([5]; oral standard dose 1 h after a meal): 0.9 h
Oral bioavailability ([5]; therapeutic or microdoses): approximately 25%

COc1ccnc(C[S+]([O-])c2nc3ccc(OC(F)F)cc3[nH]2)c1OC (stereo not shown) [pantoprazole]
Reduction of CYP3A activity (recombinant human CYP3A4): 75%
Local concentration in the gut (CYP3A; 40 mg pantoprazole with approximately 200 ml of fluid, estimate): exceeded 500 µM
Time to peak concentrations after oral administration [6]: 2 to 3 h
Peak serum concentration ([6]; converted from µg/ml): 6.5 µM
Peak serum concentration [6]: 2.5 µg/mL
Inhibition of CYP3A4-mediated midazolam metabolism in vitro (CYP3A4): inhibits CYP3A4-mediated midazolam metabolism at relatively high concentrations
